Source: doi:10.1101/2023.08.23.554426v1 (biorxiv, 2023)
pKd: −log10 of the molar value.

Key:
Details in all cases: read-out: K1; phosphate buffer pH 7.6, 25 °C; stronger site of two-site fit
HsRKIP = HsRKIP (Homo sapiens, UniProt P30086); experiment: ITC, sequential binding model
PfRKIP [1] = target: T1, PfRKIP (Plasmodium falciparum, UniProt Q7KQK1); experiment: ITC, sequential binding model
T1 sequence (Q7KQK1 1-190): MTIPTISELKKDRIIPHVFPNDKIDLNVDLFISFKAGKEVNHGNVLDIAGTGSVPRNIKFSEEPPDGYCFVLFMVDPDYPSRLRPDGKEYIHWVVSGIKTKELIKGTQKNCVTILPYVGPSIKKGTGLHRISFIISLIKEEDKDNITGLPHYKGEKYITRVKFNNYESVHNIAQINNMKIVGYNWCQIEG

PfRKIP [2] = target: PfRKIP (Plasmodium falciparum, UniProt Q7KQK1, S96A)
PfRKIP [3] = target: PfRKIP (Plasmodium falciparum, UniProt Q7KQK1, P80L)
PfRKIP [4] = target: PfRKIP (Plasmodium falciparum, UniProt Q7KQK1, H92A)

Sequence of HsRKIP (P30086 whole entry): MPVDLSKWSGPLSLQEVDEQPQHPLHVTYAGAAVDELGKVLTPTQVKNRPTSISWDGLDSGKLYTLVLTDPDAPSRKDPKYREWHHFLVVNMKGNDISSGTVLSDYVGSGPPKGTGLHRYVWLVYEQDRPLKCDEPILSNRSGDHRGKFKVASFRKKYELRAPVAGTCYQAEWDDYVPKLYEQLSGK

With `CCCCCCCCCCCCCCCC(=O)OC[C@H](COP(=O)(O)O[C@@H]1[C@H](O)[C@H](OP(=O)(O)O)[C@@H](O)[C@H](O)[C@H]1O)OC(=O)CCCCCCCCCCCCCCC` [PtdIns(3)P] the pKd (HsRKIP) was 4.36, the pKd (PfRKIP [1]) was 4.94 and the pKd (PfRKIP [2]) was 4.81. The pKd (PfRKIP [3]) was 3.96 and the pKd (PfRKIP [4]) was 4.81.
